{"source": "patent US20230357447A1", "about": "“TUMOR ACTIVATED MULTISPECIFIC ANTIBODIES FOR TARGETING CD28 AND PD-L1 AND METHODS OF USE THEREOF” (Janux Therapeutics, Inc., priority 2022, published 2023)", "key": {"[1]": {"test_system": "anti-CD28 scFv (SEQ ID NO: 9)", "experiment": "Octet bio-layer interferometry kinetic binding of anti-CD28 scFv to peptides", "design": "species or system human", "details": "Octet RED96, 1:1 binding model", "procedure": "(§1) Association and dissociation signals were recorded in real time and analyzed using a 1:1 binding model within the instrument software. Analysis using a 1:1 binding model enabled the calculation of the on and off rate constants as well as affinity, KD.\nas §1"}, "Ab-12": {"target": "Ab-12", "experiment": "Octet bio-layer interferometry kinetic binding of Ab-12 to peptides", "details": "Octet RED96, 1:1 binding model; for Kd: biotinylated peptide loaded at 200 nM on streptavidin biosensors, Ab-12 100, 50, 25, 12.5 nM; for kdis: peptide on sensor, Ab-12 100-12.5 nM", "procedure": "Briefly, streptavidin biosensors were loaded with biotinylated peptides and baselined in buffer. […] After a short association period, sensors were transferred into buffer and the dissociation of bound anti-CD28 scFv or Ab-12 was measured. The timing and steps of the experiment are shown in the accompanying table. Association and dissociation signals were recorded in real time and analyzed using a 1:1 binding model within the instrument software. Analysis using a 1:1 binding model enabled the calculation of the on and off rate constants as well as affinity, KD."}, "[2]": {"details": "biotinylated peptide loaded on streptavidin biosensor, anti-CD28 scFv in solution"}, "[3]": {"details": "peptide on sensor, CD28 scFv 100-12.5 nM"}}, "data": [{"smiles": "CSCC[C@@H]1NC(=O)[C@H](CC(=O)O)NC(=O)[C@H](CCCNC(=N)N)NC(=O)[C@@H]2CCCN2C(=O)[C@@H](NC(=O)[C@H](Cc2c[nH]c3ccccc23)NC(=O)[C@H](CC(=O)O)NC(=O)[C@@H](N)CCSC)CSSC[C@@H](C(=O)N[C@@H](Cc2ccccc2)C(=O)N[C@@H](C)C(=O)O)NC(=O)[C@H](CCC(=O)O)NC(=O)[C@H](CC(=O)O)NC(=O)[C@H](Cc2c[nH]c3ccccc23)NC1=O", "note": "[Peptide-42]", "values": [{"measurement": "kdis", "setting": "[1]; [2]", "result": 0.00433, "unit": "s⁻¹"}]}, {"smiles": "CSCC[C@H](N)C(=O)N[C@@H](CC(=O)O)C(=O)N[C@@H](Cc1c[nH]c2ccccc12)C(=O)N[C@H]1CSSC[C@@H](C(=O)N[C@@H](Cc2ccccc2)C(=O)N[C@@H](C)C(=O)O)NC(=O)[C@H](CC(C)C)NC(=O)[C@H](CC(=O)O)NC(=O)[C@H](Cc2c[nH]c3ccccc23)NC(=O)[C@H](CC(C)C)NC(=O)[C@H](CC(=O)O)NC(=O)[C@H](CCCNC(=N)N)NC(=O)[C@@H]2CCCN2C1=O", "note": "[Peptide-37]", "values": [{"measurement": "kdis", "setting": "[1]; [2]", "result": 0.00351, "unit": "s⁻¹"}]}, {"smiles": "CSCC[C@H](N)C(=O)N[C@@H](CC(=O)O)C(=O)N[C@@H](Cc1c[nH]c2ccccc12)C(=O)N[C@H]1CSSC[C@@H](C(=O)N[C@@H](Cc2ccccc2)C(=O)N[C@@H](C)C(=O)O)NC(=O)[C@H](C(C)C)NC(=O)[C@H](CO)NC(=O)[C@H](Cc2c[nH]c3ccccc23)NC(=O)[C@H](CC(C)C)NC(=O)[C@H](Cc2c[nH]cn2)NC(=O)[C@H](C(C)C)NC(=O)[C@@H]2CCCN2C1=O", "note": "[Peptide-50]", "values": [{"measurement": "kdis", "setting": "[1]; [2]", "result": 0.00443, "unit": "s⁻¹"}]}, {"smiles": "CC[C@H](C)[C@@H]1NC(=O)[C@H](CC(=O)O)NC(=O)[C@H](CCCCN)NC(=O)[C@@H]2CCCN2C(=O)[C@@H](NC(=O)[C@H](Cc2c[nH]c3ccccc23)NC(=O)[C@H](CC(N)=O)NC(=O)[C@@H](N)CCSC)CSSC[C@@H](C(=O)N[C@@H](Cc2ccccc2)C(=O)N[C@@H](CC(N)=O)C(=O)O)NC(=O)[C@H](CC(C)C)NC(=O)[C@H](Cc2ccc(O)cc2)NC(=O)[C@H](Cc2c[nH]c3ccccc23)NC1=O", "note": "[Peptide-34]", "values": [{"measurement": "kdis", "setting": "[1]; [2]", "result": 0.00684, "unit": "s⁻¹"}]}, {"smiles": "CSCC[C@@H]1NC(=O)[C@H](Cc2ccccc2)NC(=O)[C@H](CCCNC(=N)N)NC(=O)[C@@H]2CCCN2C(=O)[C@@H](NC(=O)[C@H](Cc2c[nH]c3ccccc23)NC(=O)[C@H](CC(=O)O)NC(=O)[C@@H](N)CCSC)CSSC[C@@H](C(=O)N[C@@H](Cc2ccccc2)C(=O)N[C@@H](CC(N)=O)C(=O)O)NC(=O)[C@H](CCC(=O)O)NC(=O)[C@H](CC(=O)O)NC(=O)[C@H](Cc2c[nH]c3ccccc23)NC1=O", "note": "[Peptide-45]", "values": [{"measurement": "kdis", "setting": "[1]; [2]", "result": 0.00364, "unit": "s⁻¹"}]}, {"smiles": "CSCC[C@@H]1NC(=O)[C@H](CC(=O)O)NC(=O)CNC(=O)[C@H](Cc2c[nH]c3ccccc23)NC(=O)[C@H](Cc2ccc(O)cc2)NC(=O)[C@H](Cc2c[nH]cn2)NC(=O)[C@@H](NC(=O)[C@H](Cc2ccc(O)cc2)NC(=O)CN)CSSC[C@@H](C(=O)NCC(=O)O)NC(=O)[C@H](Cc2c[nH]c3ccccc23)NC(=O)[C@H](CCSC)NC(=O)[C@H](C(C)C)NC1=O", "note": "[Peptide-12]", "values": [{"measurement": "kdis", "setting": "[1]; [3]", "result": 0.00167, "unit": "s⁻¹"}, {"measurement": "Kd", "setting": "Ab-12", "result": 13.1, "unit": "nM"}, {"measurement": "kdis", "setting": "Ab-12", "result": 0.00127, "unit": "s⁻¹"}]}, {"smiles": "CSCC[C@H](N)C(=O)N[C@@H](Cc1c[nH]cn1)C(=O)N[C@@H](Cc1c[nH]c2ccccc12)C(=O)N[C@H]1CSSC[C@@H](C(=O)N[C@@H](Cc2ccc(O)cc2)C(=O)N[C@@H](CC(N)=O)C(=O)O)NC(=O)[C@H](CC(C)C)NC(=O)[C@H](Cc2ccc(O)cc2)NC(=O)[C@H](Cc2c[nH]c3ccccc23)NC(=O)[C@H](CC(C)C)NC(=O)[C@H](CC(=O)O)NC(=O)[C@H](C(C)C)NC(=O)[C@@H]2CCCN2C1=O", "note": "[Peptide-49]", "values": [{"measurement": "kdis", "setting": "[1]; [2]", "result": 0.00186, "unit": "s⁻¹"}]}, {"smiles": "CSCC[C@H](N)C(=O)N[C@@H](CC(=O)O)C(=O)N[C@@H](Cc1c[nH]c2ccccc12)C(=O)N[C@H]1CSSC[C@@H](C(=O)N[C@@H](Cc2ccccc2)C(=O)N[C@@H](C)C(=O)O)NC(=O)[C@H](C(C)C)NC(=O)[C@H](Cc2c[nH]cn2)NC(=O)[C@H](Cc2c[nH]c3ccccc23)NC(=O)[C@H](CC(C)C)NC(=O)[C@H](Cc2ccc(O)cc2)NC(=O)[C@H](CCCNC(=N)N)NC(=O)[C@@H]2CCCN2C1=O", "note": "[Peptide-48]", "values": [{"measurement": "kdis", "setting": "[1]; [2]", "result": 0.00187, "unit": "s⁻¹"}]}, {"smiles": "CSCC[C@H](N)C(=O)N[C@@H](CC(=O)O)C(=O)N[C@@H](Cc1c[nH]c2ccccc12)C(=O)N[C@H]1CSSC[C@@H](C(=O)N[C@@H](Cc2ccccc2)C(=O)N[C@@H](C)C(=O)O)NC(=O)[C@H](CCC(=O)O)NC(=O)[C@H](Cc2c[nH]cn2)NC(=O)[C@H](Cc2c[nH]c3ccccc23)NC(=O)[C@H](CC(C)C)NC(=O)[C@H](CC(=O)O)NC(=O)[C@H](CCCNC(=N)N)NC(=O)[C@@H]2CCCN2C1=O", "note": "[Peptide-38]", "values": [{"measurement": "kdis", "setting": "[1]; [2]", "result": 0.00277, "unit": "s⁻¹"}]}, {"smiles": "CC[C@H](C)[C@@H]1NC(=O)[C@@H]2CCCN2C(=O)[C@@H](NC(=O)[C@H](Cc2c[nH]c3ccccc23)NC(=O)[C@H](CC(=O)O)NC(=O)[C@@H](N)CCSC)CSSC[C@@H](C(=O)N[C@@H](Cc2ccccc2)C(=O)N[C@@H](Cc2ccccc2)C(=O)O)NC(=O)[C@H](CCC(=O)O)NC(=O)[C@H](CC(N)=O)NC(=O)[C@H](Cc2c[nH]c3ccccc23)NC(=O)[C@H](CC(C)C)NC(=O)[C@H](CC(=O)O)NC1=O", "note": "[Peptide-31]", "values": [{"measurement": "kdis", "setting": "[1]; [2]", "result": 0.00369, "unit": "s⁻¹"}]}, {"smiles": "CSCC[C@H](N)C(=O)N[C@@H](CC(=O)O)C(=O)N[C@@H](Cc1c[nH]c2ccccc12)C(=O)N[C@H]1CSSC[C@@H](C(=O)N[C@@H](Cc2ccccc2)C(=O)N[C@@H](Cc2ccccc2)C(=O)O)NC(=O)[C@H](CC(=O)O)NC(=O)[C@H](C(C)C)NC(=O)[C@H](Cc2c[nH]c3ccccc23)NC(=O)[C@H](CCCNC(=N)N)NC(=O)[C@H](CCC(=O)O)NC(=O)[C@H](CCCNC(=N)N)NC(=O)[C@@H]2CCCN2C1=O", "note": "[Peptide-9]", "values": [{"measurement": "kdis", "setting": "[1]; [2]", "result": 0.0115, "unit": "s⁻¹"}, {"measurement": "kdis", "setting": "[1]; [3]", "result": 0.0123, "unit": "s⁻¹"}, {"measurement": "Kd", "setting": "Ab-12", "result": 18.8, "unit": "nM"}, {"measurement": "kdis", "setting": "Ab-12", "result": 0.00317, "unit": "s⁻¹"}]}, {"smiles": "CC[C@H](C)[C@@H]1NC(=O)[C@@H]2CCCN2C(=O)[C@@H](NC(=O)[C@H](Cc2c[nH]c3ccccc23)NC(=O)[C@H](CC(=O)O)NC(=O)[C@@H](N)CCSC)CSSC[C@@H](C(=O)N[C@@H](Cc2ccccc2)C(=O)N[C@@H](CC(N)=O)C(=O)O)NC(=O)[C@H](CCC(=O)O)NC(=O)[C@H](CO)NC(=O)[C@H](Cc2c[nH]c3ccccc23)NC(=O)[C@H](CC(C)C)NC(=O)[C@H](Cc2ccc(O)cc2)NC1=O", "note": "[Peptide-33]", "values": [{"measurement": "kdis", "setting": "[1]; [2]", "result": 0.00153, "unit": "s⁻¹"}]}]}
